The source of these data is US10280179B2, “Spiroquinoxaline derivatives as inhibitors of non-apoptotic regulated cell-death” (Helmholtz Zentrum Munchen—Deutches Forschungszentrum Fur …, priority 2013, dated 2019).

One data set concerns mouse hippocampal cell line (Ht22). Description: Inhibition of glutamate-induced non-apoptotic cell death (Example B.2). Conditions: HT-22, Ht22 cells, glutamate-induced cell death, read-out: Ht22/GLU. The data set is classed as cell-based. The source says:
Inhibition of Glutamate-Induced Non-Apoptotic Cell Death by Compounds of the Present Invention
Glutamate toxicity is conferred on cells from the mouse hippocampal cell line (Ht22) by inhibition of the cysteine/glutamate antiporter, System xc-, leading to impaired cysteine uptake and subsequent GSH depletion. This model is frequently used for mimicking glutathione depletion following oxidative stress in stroke, brain trauma and other neurodegenerative diseases and cellular conditions following ischemia (for example: van Leyen et al, J. Neurochem. 92:824-30 (2005)).
Compounds disclosed herein were evaluated for their ability to promote cell survival upon administration of a lethal dose of glutamate (GLU) to the cell-culture medium.
Briefly, Ht22 cells (ATCC) were propagated DMEM supplemented with 10% FBS/1% Penicillin-Streptomycin, and then seeded onto 96-well plates at a concentration of 2,000 cells/well in 100 μL of MEDIA, simultaneously with glutamate (Sigma Aldrich) to a final concentration of 5 mM, together with increasing concentrations of the compound to be tested (0.5 pM to 100 μM), and the plates incubated at 37° C./5% CO2 for 72 hours. Compound dilutions were prepared from 10 mM stocks dissolved in DMSO and diluted in media. Cells treated with glutamate alone were used as negative control and alpha-tocopherol (Sigma Aldrich) was used as positive control. Compound concentrations were tested in triplicate. After incubation, cell survival was detected and quantified as described in Example B.1.
Turning to `Clc1ccc(CNC2=Nc3ccccc3NC23CCOCC3)c(Cl)c1` [O/S-354], the IC50 is under 0.5 µM.
The same measure, in the same setting: for `Fc1cc(Cl)ccc1CNC1=Nc2ccccc2NC12CCCCC2` [C-61] the value was under 0.5 µM.
Still for that read-out and setting: for `Fc1ccc(CNC2=Nc3ccccc3NC23CCNCC3)c(F)c1` [N-221] the value was under 0.2 µM.
On the same count and under the same terms, then `c1ccc(CNC2=Nc3ccccc3NC23CCCC3)cc1` [C-219], with under 5 µM; and `Clc1ccc(CNC2=Nc3ccccc3NC23CCCCCC3)cc1` [C-220], with under 0.5 µM; and `Cc1cccc(CNC2=Nc3cc(C)c(C)cc3NC23CCNCC3)c1` [N-235], with under 0.05 µM.
`CC(CCc1ccccc1)NC1=Nc2ccccc2NC12CCCCC2` (stereo not drawn) [C-233]: the IC50 was under 1 µM.
Still for that read-out and setting: then `Fc1cc(Cl)ccc1CNC1=Nc2ccccc2NC12CCOCC2` [O/S-61], with under 1 µM.
The same measure, in the same setting: for `Fc1ccc(CNC2=Nc3ccccc3NC23CCCCCC3)c(F)c1` [C-242] the value was under 1 µM; for `Cc1cc2c(cc1C)NC1(CCNCC1)C(NCc1ccc(Cl)cc1)=N2` [N-214], under 0.05 µM.
Still for that read-out and setting: then `CCCCCCCC(=O)N1CCC2(CC1)Nc1ccccc1N=C2NCc1ccccc1` [N-216], with under 0.5 µM.
For the compound `Fc1ccc(CNC2=Nc3ccccc3NC23CCOCC3)c(F)c1` [O/S-355], the IC50 is under 2 µM.
For `c1ccc(CCCNC2=Nc3ccccc3NC23CCOCC3)cc1` [O/S-343], the IC50 is under 5 µM.
Same read-out and setting: for `Clc1ccc(CNC2=Nc3ccccc3NC23CCCCC3)cc1` [C-3] the value was under 0.5 µM; for `c1ccc(CNC2=Nc3ccccc3NC23CCNCC3)cc1` [N-206], under 0.5 µM.
Still for that read-out and setting: then `Clc1cccc(CNC2=Nc3cc(Cl)c(Cl)cc3NC23CCNCC3)c1` [N-115], with under 0.05 µM.
Still for that read-out and setting: for `COc1cccc(CNC2=Nc3ccccc3NC23CCCCCC3)c1` [C-224] the value was under 1 µM.
As for `Clc1ccc(CNC2=Nc3ccccc3NC23CCNCC3)c(Cl)c1` [N-56], the IC50 is under 0.05 µM.
The same measure, in the same setting: for `c1ccc(C(CNC2=Nc3ccccc3NC23CCOCC3)c2ccccc2)cc1` [O/S-352] the value was under 1 µM; for `Fc1cccc(F)c1CNC1=Nc2ccccc2NC12CCOCC2` [O/S-341], under 2 µM; for `Fc1ccc(CNC2=Nc3ccccc3NC23CCSCC3)c(F)c1` [O/S-359], under 5 µM.
Same read-out and setting: for `CC(NC1=Nc2ccccc2NC12CCNCC2)c1ccccc1` (stereo not drawn) [N-218] the value was under 0.5 µM; for `FC(F)(F)c1cccc(CNC2=Nc3ccccc3NC23CCOCC3)c1` [O/S-23], under 1 µM.

Another data set deals with Pfa1 cells. Description: Inhibition of non-apoptotic cell death after tamoxifen-induced GPx4 knockout in a recombinant cell line (Example B.4). To be noted: Mus musculus, read-out: Pfa1/TAM IC50. The data set is classed as cell-based. An excerpt: Inhibition of Non-Apoptotic Cell-Death by Compounds Disclosed Herein Using a Recombinant Cell Line
To combat high intracellular ROS levels, mammalian cells have evolved an intricate network of ROS scavenging in cells, in which the thioredoxin and glutathione (GSH) dependent systems prevail. […] Knockout of GPx4 in neurons causes massive neurodegeneration in cortical, cerebellar and hippocampal neurons underscoring the high relevance of ROS-induced cell death signaling in the brain. Briefly, immortalised fibroblasts from these mice were made to contain tamoxifen-inducible CreERT2, which catalyzes the functional ablation of both copies of GPx4 and resulting in a complete knockout of GPx4, a massive ROS burst, and cell death in cell culture. These cells (Pfa1 cells) were used to characterize compounds of the present invention, whereby tamoxifen (TAM) was given on day 0 along with the compound under test, and 72 hours later cell survival was evaluated using AlamarBlue.
With `Clc1ccc(CNC2=Nc3ccccc3NC23CCOCC3)c(Cl)c1` [O/S-354], the IC50 is under 0.5 µM.
On the same count and under the same terms, for `Fc1cc(Cl)ccc1CNC1=Nc2ccccc2NC12CCCCC2` [C-61] the value was under 0.2 µM; for `Fc1ccc(CNC2=Nc3ccccc3NC23CCNCC3)c(F)c1` [N-221], under 0.2 µM.
In the case of `c1ccc(CNC2=Nc3ccccc3NC23CCCC3)cc1` [C-219], the IC50 was under 2 µM.
On the same count and under the same terms, for `Clc1ccc(CNC2=Nc3ccccc3NC23CCCCCC3)cc1` [C-220] the value was under 0.2 µM; for `Cc1cccc(CNC2=Nc3cc(C)c(C)cc3NC23CCNCC3)c1` [N-235], under 0.05 µM.
For the compound `CC(CCc1ccccc1)NC1=Nc2ccccc2NC12CCCCC2` (stereo not drawn) [C-233], the IC50 was under 1 µM.
For `Fc1cc(Cl)ccc1CNC1=Nc2ccccc2NC12CCOCC2` [O/S-61], the IC50 is under 1 µM.
Still for that read-out and setting: then `Fc1ccc(CNC2=Nc3ccccc3NC23CCCCCC3)c(F)c1` [C-242], with under 1 µM; and `Cc1cc2c(cc1C)NC1(CCNCC1)C(NCc1ccc(Cl)cc1)=N2` [N-214], with under 0.01 µM; and `CCCCCCCC(=O)N1CCC2(CC1)Nc1ccccc1N=C2NCc1ccccc1` [N-216], with under 0.5 µM.
Take `Fc1ccc(CNC2=Nc3ccccc3NC23CCOCC3)c(F)c1` [O/S-355]: the IC50 was under 2 µM.
On the same count and under the same terms, then `c1ccc(CCCNC2=Nc3ccccc3NC23CCOCC3)cc1` [O/S-343], with under 2 µM; and `Clc1ccc(CNC2=Nc3ccccc3NC23CCCCC3)cc1` [C-3], with under 0.2 µM; and `c1ccc(CNC2=Nc3ccccc3NC23CCNCC3)cc1` [N-206], with under 0.2 µM.
Same read-out and setting: for `Clc1cccc(CNC2=Nc3cc(Cl)c(Cl)cc3NC23CCNCC3)c1` [N-115] the value was under 0.01 µM; for `COc1cccc(CNC2=Nc3ccccc3NC23CCCCCC3)c1` [C-224], under 0.5 µM.
For `Clc1ccc(CNC2=Nc3ccccc3NC23CCNCC3)c(Cl)c1` [N-56], the IC50 is under 0.01 µM.
The same measure, in the same setting: then `c1ccc(C(CNC2=Nc3ccccc3NC23CCOCC3)c2ccccc2)cc1` [O/S-352], with under 1 µM; and `Fc1cccc(F)c1CNC1=Nc2ccccc2NC12CCOCC2` [O/S-341], with under 2 µM.
Still for that read-out and setting: for `Fc1ccc(CNC2=Nc3ccccc3NC23CCSCC3)c(F)c1` [O/S-359] the value was over 5 µM; for `CC(NC1=Nc2ccccc2NC12CCNCC2)c1ccccc1` (stereo not drawn) [N-218], under 0.5 µM; for `FC(F)(F)c1cccc(CNC2=Nc3ccccc3NC23CCOCC3)c1` [O/S-23], under 0.5 µM.

System in the next data set: not listed separately
Description: Cellular toxicity, same assay as Example B.4 without TAM (Example B.5). Conditions: mouse; Pfa1 cells without TAM; read-out: TC50 (the source's name). Format: cell-based. The source says:
Cellular Toxicity of Compounds of the Invention
An estimate of the toxicity for compounds of the invention was obtained by using the same assay as described in Example B.4, but without the addition of TAM. […] Such TC50 values obtained for certain compounds disclosed herein, together with an approximate therapeutic window (estimated by dividing each TC50 by the corresponding IC50 determined from example B.4) are shown in Table 3.
Take `Clc1ccc(CNC2=Nc3ccccc3NC23CCOCC3)c(Cl)c1` [O/S-354]: the CC50 fell in the range of 20 to 50 µM.
On the same count and under the same terms, for `Fc1cc(Cl)ccc1CNC1=Nc2ccccc2NC12CCCCC2` [C-61] the value was 20 to 50 µM.
Regarding `Fc1ccc(CNC2=Nc3ccccc3NC23CCNCC3)c(F)c1` [N-221], the CC50 lay within 20 to 50 µM.
On the same count and under the same terms, then `c1ccc(CNC2=Nc3ccccc3NC23CCCC3)cc1` [C-219], with 20 to 50 µM.
Same read-out and setting: for `Clc1ccc(CNC2=Nc3ccccc3NC23CCCCCC3)cc1` [C-220] the value was 10 to 20 µM; for `Cc1cccc(CNC2=Nc3cc(C)c(C)cc3NC23CCNCC3)c1` [N-235], 1 to 2 µM.
Same read-out and setting: for `CC(CCc1ccccc1)NC1=Nc2ccccc2NC12CCCCC2` (stereo not drawn) [C-233] the value was 20 to 50 µM.
`Fc1cc(Cl)ccc1CNC1=Nc2ccccc2NC12CCOCC2` [O/S-61]: the CC50 lay in the range of 20 to 50 µM.
Regarding `Fc1ccc(CNC2=Nc3ccccc3NC23CCCCCC3)c(F)c1` [C-242], the CC50 was 10 to 20 µM.
Take `Cc1cc2c(cc1C)NC1(CCNCC1)C(NCc1ccc(Cl)cc1)=N2` [N-214]: the CC50 fell in the range of 1 to 2 µM.
On the same count and under the same terms, for `CCCCCCCC(=O)N1CCC2(CC1)Nc1ccccc1N=C2NCc1ccccc1` [N-216] the value was 10 to 20 µM; for `Fc1ccc(CNC2=Nc3ccccc3NC23CCOCC3)c(F)c1` [O/S-355], 50 to 100 µM; for `c1ccc(CCCNC2=Nc3ccccc3NC23CCOCC3)cc1` [O/S-343], 20 to 50 µM.
The same measure, in the same setting: then `Clc1ccc(CNC2=Nc3ccccc3NC23CCCCC3)cc1` [C-3], with 20 to 50 µM; and `c1ccc(CNC2=Nc3ccccc3NC23CCNCC3)cc1` [N-206], with 20 to 50 µM; and `Clc1cccc(CNC2=Nc3cc(Cl)c(Cl)cc3NC23CCNCC3)c1` [N-115], with 0.2 to 0.5 µM.
Still for that read-out and setting: for `COc1cccc(CNC2=Nc3ccccc3NC23CCCCCC3)c1` [C-224] the value was 20 to 50 µM; for `Clc1ccc(CNC2=Nc3ccccc3NC23CCNCC3)c(Cl)c1` [N-56], 1 to 2 µM; for `c1ccc(C(CNC2=Nc3ccccc3NC23CCOCC3)c2ccccc2)cc1` [O/S-352], 20 to 50 µM.
On to `Fc1cccc(F)c1CNC1=Nc2ccccc2NC12CCOCC2` [O/S-341], for which the CC50 was 50 to 100 µM.
Same read-out and setting: then `Fc1ccc(CNC2=Nc3ccccc3NC23CCSCC3)c(F)c1` [O/S-359], with 50 to 100 µM; and `CC(NC1=Nc2ccccc2NC12CCNCC2)c1ccccc1` (stereo not drawn) [N-218], with 20 to 50 µM.
On the same count and under the same terms, for `FC(F)(F)c1cccc(CNC2=Nc3ccccc3NC23CCOCC3)c1` [O/S-23] the value was 20 to 50 µM.
